“Also recorded” adds a separate entry of the source.
Assays:
Type in all cases: cell-based
[1] = tested on: human pancreatic epithelial cells PANC-1; assay: Senolytic activity on doxorubicin-induced senescent PANC-1 cells (crystal violet survival); details: senescent PANC-1, 1-60 μM, 72 h (FIG. 3a)
Description: (§1) The successful conversion to the senescent cell phenotype was confirmed by morphological changes (flattening and cell enlargement) and positivity for lysosomal beta-galactosidase (β-GAL). The SA-β-GAL (senescence-associated β-GAL) senescence assay was performed with the SA-β-Gal Staining Kit (Cell Signaling Technology, Inc., Danvers, MA). Briefly, after fixation with […] for 15 min at room temperature, senescent cells were quantified by calculating the percentage of SA-β-GAL positive (blue stained) cells present in culture by examining 200 cells per well with the phase contrast microscope EVOS XL Cell Imaging System (Thermo Fisher; objective, 40X).
(§2) Senolytic activity on senescent human cells (in 96-well plates) was evaluated after specific treatments (for 72 h), including vehicle (DMSO; negative control), quercetin (Que; positive control) or different compounds according to the ‘invention bearing identification codes as fully illustrated also in patent application WO 2019/008537 A1, filed on May 7, 2017 in the name of Vera Salus Ricerca SrI (FIGS. 1, 2 and 3) from page 91 to page 106 and in the relative Figures. At the end of the treatments, cell survival was quantified by crystal violet staining. […] After further washing with water (3X), 100 μl of acetic acid (10%) were added per well and the absorbance (λ=590 nm) measured with a Synergy spectrophotometer (AHSI). […]

[2] = tested on: human WS1 fibroblast cells; assay: Senolytic activity on doxorubicin-induced senescent WS1 fibroblasts (crystal violet survival)
Description: as §1
Senolytic activity on senescent human cells (in 96-well plates) was evaluated after specific treatments (for 72 h), including vehicle (DMSO; negative control), quercetin (Que; positive control) or different compounds according to the ‘invention bearing identification codes as fully illustrated also in patent application WO 2019/008537 A1, filed on May 7, 2017 in the name of Vera Salus Ricerca SrI (FIGS. 1, 2 and 3) from page 91 to page 106 and in the relative Figures. At the end of the treatments, cell survival was quantified by crystal violet staining. Briefly, cells were fixed with paraformaldehyde (4%) in PBS for 20 min, washed (2X in distilled water) and stained with 1% crystal violet (for 20 min). After further washing with water (3X), 100 μl of acetic acid (10%) were added per well and the absorbance (λ=590 nm) measured with a Synergy spectrophotometer (AHSI). Each experiment was carried out in quadruplicate and repeated at least three times, on three different days. Senolytic activity was expressed as % of senescent cells eliminated with respect to the control condition (DMSO). Results were presented as means±SEM (standard error of mean) and related analyzes were performed with GraphPadPrism® 6.0 software (CA, USA).
In a first step, the senolytic activities of the compounds according to the invention were investigated in human WS1 fibroblast cells (normal fibroblasts of cutaneous origin, ATCC® CRL-1502™). WS1 cell senescence was induced with 100 nM doxorubicin (24 h) and 12 days of recovery, while the senolytic activity was quantified after treatments with vehicle (DMSO), quercetin (Que, 20 μM), quercetin (20 μM) plus dasatinib (DAS, 200 nM; other positive control) or 18 distinct compounds according to the invention used at a concentration of 20 μM, alone (FIG. 1a) or in the presence of 200 nM dasatinib (FIG. 1b).

[3] = tested on: human intestinal epithelium cells HCT116; assay: Senolytic activity on doxorubicin-induced senescent HCT116 cells (crystal violet survival); details: senescent HCT116, 1-60 μM, 72 h (FIG. 2a)
Description: as §1, §2

[4] = tested on: human lung epithelium cells A549; assay: Senolytic activity on doxorubicin-induced senescent A549 cells (crystal violet survival); details: senescent A549, 1-60 μM, 72 h (FIG. 3c)
Description: as §1, §2

[5] = tested on: human renal epithelial cells 786-0; assay: Senolytic activity on doxorubicin-induced senescent 786-0 cells (crystal violet survival); details: senescent 786-0, 1-60 μM, 72 h (FIG. 2b)
Description: as §1, §2

[6] = tested on: human hepatic epithelial cells HepG2; assay: Senolytic activity on doxorubicin-induced senescent HepG2 cells (crystal violet survival); details: senescent HepG2, 1-60 μM, 72 h (FIG. 3b)
Description: as §1, §2

## COc1ccc(-c2ccc(C(=O)NCCOCCOc3c(-c4ccc(O)c(O)c4)oc4cc(O)cc(O)c4c3=O)cc2)cc1 [29g]
[1]
  senolytic activity compared with quercetin: significantly higher than quercetin
[2]; senescent WS1, 20 μM alone vs quercetin 20 μM, 72 h (FIG. 1a)
  senolytic effect relative to that of quercetin: ~3 times
[2]; senescent WS1, 20 μM alone, 72 h (FIG. 1a)
  senolytic effect in words, compared with the other compounds / treatments: maximum senolytic effects; also recorded: higher senolytic effect than all the other compounds
[2]; senescent WS1, compound 20 μM alone vs quercetin 20 μM + dasatinib 200 nM, 72 h
  senolytic effect of compound alone compared with the combination quercetin plus dasatinib: greater than the combination of quercetin plus dasatinib
[2]; senescent WS1, compound 20 μM alone, 72 h (FIG. 1a)
  senolytic effect (% of senescent cells eliminated with respect to DMSO control): ~60%
[2]; senescent WS1, compound 20 μM in the presence of 200 nM dasatinib vs quercetin 20 μM + dasatinib 200 nM, 72 h (FIG. 1b)
  senolytic action compared with quercetin plus dasatinib: more effective
[3]
  senolytic activity compared with quercetin: significantly higher than quercetin
[4]
  senolytic activity compared with quercetin: significantly higher than quercetin
[5]
  senolytic activity compared with quercetin: significantly higher than quercetin
[6]
  senolytic activity compared with quercetin: significantly higher than quercetin

— patent US20240041820A1, “SENOTHERAPEUTIC COMPOUND” (BIONEXA S.R.L., priority 2020, published 2024)
